Results reported in a melting point compilation (Tetko et al.; mined from patent text by program, amines drawn as free bases though some values may be those of a salt).

| Structure (SMILES) | melting point [°C] |
| --- | --- |
| COc1ccc(C(=CC=Cc2ccc(N(c3ccc(C)cc3)c3ccc(C)cc3)cc2)c2ccc(OC)cc2)cc1 | 133 to 135 |
| O=S(=O)(/C=C/c1ccccc1)Nc1ccc(F)cc1 | 83 to 85 |
| [N-]=[N+]=NC(=O)C=Cc1cccc2[nH]ccc12 | 105 to 106 |
| CC(=O)c1c[nH]c(Cc2ccc(O)cc2)n1 | 229 to 231 |
| CCc1cc(C(C)=O)c(O)cc1OCc1ccc(C(=O)O)c(O)c1 | 214 to 216 |
| Cn1c2ccccc2c2c3c(c4c5cc(O)ccc5n(CCC#N)c4c21)C(=O)NC3=O | 303 to 306 |
| CS(=O)(=O)N1CCC(CCC(=O)c2ccc3c(c2)CCN(Cc2ccccc2)CC3)CC1 | 134 to 137 |
| COC(=O)CCCc1cc2nc(Cl)ccc2n1S(=O)(=O)c1ccc(Br)cc1 | 102 |
| O=Cc1cc(-c2ccccc2)c(=O)n2c1-c1sccc1CC2 | 213 to 215 |
| Cc1cc(CCCCCCCCCCc2cc(C)c(O)c(C(C)(C)C)c2)cc(C(C)(C)C)c1O | 96 to 98 |
| O=[N+]([O-])c1cccc(OCc2ncc3ccccc3n2)c1 | 125 to 127 |
| COc1cccc(CNC(=O)c2nc3ccc(C#N)cc3c(=O)[nH]2)c1 | 206 to 208 |
| Oc1cc(Br)c2oc(-c3ccc(O)c(F)c3)nc2c1 | 265 to 267 |
| O=c1cc(O)c2ccc(F)cc2o1 | 229 to 230 |
| Cc1cc(C(=O)NCCc2ccc(CCC(=O)O)cc2)n[nH]1 | 202 to 205 |
| CCC1C(C=O)=NN=C(c2ccc(OC)c(OC)c2)c2cc(OC)c(OC)cc21 (stereo unspecified) | 103 to 105 |
| CCCn1nc2c(N)nc3c(c2c1CCCc1cc(C(C)C)no1)CCCC3 | 147 to 149 |
| N#Cc1c(CNC(=O)C2(S(=O)(=O)c3ccc(Cl)cc3)CCCC2)nn(-c2ccccc2Cl)c1-c1ccc(Cl)cc1 | 109 |
| Cc1c(C(=O)O)c(CC(=O)O)n(C)c1C(=O)c1cccnc1 | 186 to 188 |
| ICCc1ccc2c(c1)OCO2 | 36 to 38 |
| Cc1c(Cc2ccc(C(C)C)cc2)c2c(c(C)c1NC(=O)CC(C)(C)C)C(C)CO2 (stereo unspecified) | 185 to 186 |
| COc1c(Cl)ccc(-c2nc(N)c(C(C)OC)c(C(=O)O)n2)c1F (stereo unspecified) | 165 to 167 |
| CC(C)(C)c1cc(C(=O)COc2ccc(C(=O)O)c(O)c2)cc(C(C)(C)C)c1O | 164 to 165 |
| O=C(O)c1ccc(-c2ccc(O)c(F)c2)cc1 | 254 to 256 |
| O=Cc1cc2cc(O)c(Cl)c(Cl)c2s1 | 197 to 198 |
| Cc1ncc(CCCOc2c(C)cc(-c3nnn(C)n3)cc2C)s1 | 86 to 88 |

| Structure (SMILES) | melting point [°C] |
| --- | --- |
| COC(=O)c1c(C)[nH]c(=S)n1Nc1cccc(Cl)c1 | 194 to 196 |
| Cc1nn(-c2c(Cl)cc(C(F)(F)F)cc2Cl)c(NCC(=O)O)c1SC(F)(F)F | 168 to 170 |
| CC(C)(C#N)NC(=O)c1ccccc1Cl | 59 to 65 |
| O=S1(=O)c2cccc3cccc(c23)N1CCCN1CC=C(c2ccccc2)CC1 | 88 |
| C#CCN1CC[C@H](O[Si](C)(C)C(C)(C)C)C1=O | 35 to 36 |
| COc1ccc2c(c1)c1c3c(c(-c4ccccc4OC)cc1n2CCCO)C(=O)NC3=O | 223 to 225 |
| CS(=O)(=O)c1ccc(-c2cc(CCO[N+](=O)[O-])nn2C2CCCCC2)cc1 | 117 |
| CCOc1ccc(C(=O)NCCc2ccc(S(=O)(=O)NC(=O)c3ccc(C(=O)NCC(=O)O)nc3)cc2)cc1OCC | > 230 |
| NCCCCCCNc1nsc2nccn12 | 81 to 82 |
| COCc1cc2c(s1)CCc1cc(=O)n(-c3ccc(C)cc3)nc1-2 | 132 to 133 |
| COc1ccc(C2C=C3CCN(Cc4ccccc4)CC3C(CO)C2CO)cc1 (stereo unspecified) | 145 to 147 |
| COc1cc(S(N)(=O)=O)cnc1N=Nc1cc(OC(C)C)c2ccccc2c1O | 289 |
| CCCN(Cc1ccccc1C(=O)O)c1ccc(CC(=O)O)cc1 | 163 |
| Oc1ccc(-c2cccc(OC3SCC(O)C(O)C3O)c2)cn1 (stereo unspecified) | 200 |
| CON=C(C)c1nc(-c2cccnc2)[nH]c1C | 203 to 205 |
| COC(=O)C[C@@H]1C[C@@H](COc2ccc(-c3ccc(C#N)cc3)cc2N)N(CCCc2ccccc2)C1=O | 111 to 112 |
| CCOC(=O)c1cnc2ccc(CC)nc2c1Nc1ccc(OC)cc1 | 145 to 148 |
| CCNC(=O)ON(C(=O)CC)C(=O)NCC | 104 to 106 |
| COP(=O)(OC)c1cc(Oc2ccc(C(F)(F)F)cc2Cl)ccc1[N+](=O)[O-] | 83 |
| Cc1sc(C=O)cc1Br | 58 |
| O=C1NC=NC2CN=C(c3ccccc3)c3cc(Cl)ccc3C12 (stereo unspecified) | 150 to 155 |
| Clc1csc2c(Cl)cccc12 | 100 to 102 |
| Brc1ccc2c(c1)N=C(NCc1cccnc1)c1ccccc1N2 | 152 to 155 |
| CN(C(=O)Nc1cccc(C(F)(F)F)c1)S(C)(=O)=O | 72 |
| CC(C)c1nc(CC(=O)O)n(C)c1Sc1cc(Cl)cc(Cl)c1 | 118 |
| CCN(CC)C(=O)NCCOC(=O)c1cc(Oc2ccc(C(F)(F)F)cc2Cl)ccc1[N+](=O)[O-] | 89 to 90 |

| Structure (SMILES) | melting point [°C] |
| --- | --- |
| O=C(O)c1[nH]c(-c2cccs2)cc1-c1ccc(F)cc1 | 194 to 195 |
| C[C@H]1N=C(c2ccccc2F)c2cc(N)ccc2N(C)C1=O | 224 to 226 |
| O=C(CCc1ccccc1)N[C@H](Cc1ccc(C(F)(F)F)cc1)[C@@H](O)c1ccc(F)cc1 (racemic) | 144 to 145 |
| CCCC(=O)c1cnc2c(NCCCN3CCOCC3)cccc2c1Nc1ccccc1C | 110 to 111 |
| c1ccc(-c2nc(SCCOCCSc3nc(-c4ccccc4)c(-c4ccccc4)[nH]3)[nH]c2-c2ccccc2)cc1 | 232 to 234 |
| COc1cc2ncc(C(=O)O)c(Nc3cccc(Br)c3)c2cc1OC | 282 to 285 |
| O=C(NCCCCOc1ccc(-n2ccnc2)cc1)c1ccc(Cl)cc1 | 138 to 139 |
| O=c1ccn(CCO)c(C(O)c2ccc(F)cc2)c1O (stereo unspecified) | 187 to 188 |
| O=C(NCCSCc1cccc(F)c1)c1c(Cl)cccc1Cl | 70 to 72 |
| COCCOc1cccc(-c2ccc(C3CCN(S(=O)(=O)C(C)(C)C(=O)NO)CC3)cc2C)n1 | 134 to 138 |
| CCn1c(C)nc2cc(C(F)(F)F)c(N(C)C)c(N)c21 | 141 to 142 |
| CCNC(=O)Nc1nc2cc(-c3cccnc3)ccn2n1 | 230 to 233 |
| O=Nc1c(-c2ccccc2)nc2ccccn12 | 165 to 167 |
| CNC(=O)n1sc(N(C)C)nc1=O | 164 |
| CCCCc1nc2cnccc2n1Cc1ccc(C(=O)O)cc1 | 210 |
| Oc1cc2c(cc1CCc1cccs1)OCC2 | 79 to 85 |
| COC=NS(=O)(=O)c1cc(C(C)C)c(C#N)cc1C(C)C | 130 to 132 |
| Cc1nc(N)c2nc(-c3ccccc3)cc-2[nH]1 | > 280 |
| CC(=O)Nc1nc(CCc2ccc(CN3CCC(NC(=O)OC(C)(C)C)C3)cc2)cs1 (stereo unspecified) | 131 to 132 |
| CNC(=O)c1ccc(N2CCN(Cc3cc4c(c(-c5ccccc5)c3)OC(C)C(=O)N4)CC2)cc1 (stereo unspecified) | 185 to 189 |
| CCCCCCCCCCCCCCOc1ccc(CNc2ccc(CO)cc2)cc1 | 85 to 87 |
| Cc1c(C(=O)c2cc(O)c(O)c([N+](=O)[O-])c2)[nH]c2ccccc12 | 212 to 214 |
| NC(=O)c1cc(F)c(N[C@H]2CC[C@H](N)CC2)cc1F | 209 to 210 |
| Cn1c(=NN)sc2ccccc21 | 134 |
| CCCCOc1cc2c(cc1OC)C(c1ccc(OC)c(OC)c1)=NN=C(C)C2CC (stereo unspecified) | 147 to 150 |
| CC(=O)Nc1sc(C(=O)OCc2ccccc2)c(C)c1C(=O)OC(C)(C)C | 157 to 158 |

| Structure (SMILES) | melting point [°C] |
| --- | --- |
| CC(C)c1onc(-c2c(Cl)cccc2Cl)c1COc1ccc(NCc2ccc(C(=O)O)cc2)c(C(F)(F)F)n1 | 259 to 260 |
| O=C(Nc1ccc(-n2nc(C(F)(F)F)cc2C(F)(F)F)nc1)c1cc(F)c(F)cc1Cl | 113 to 116 |
| COC(=O)COC(=O)COc1ccc(-c2coc3cc(OCC(=O)OCC(=O)OC)ccc3c2=O)cc1 | 111 to 114 |
| COC(=O)Cc1nc(-c2ccccc2)c2cc(Cl)ccc2n1 | 122 to 123 |
| CCCCCCCCCCCCCCCCCC(O)c1ccc(Cl)c(C(=O)O)c1 (stereo unspecified) | 106 to 107 |
| CCc1nc(/C=C/c2cn(-c3ccccc3)nc2OCc2ccc(OCc3nc(-c4ccc(CC(=O)O)cc4)oc3C)c(OC)c2)c(C)s1 | 198 to 199 |
| Cc1nc2c(O)c(C(=O)[C@@H]3OC(C)(C)O[C@H]3c3ccccc3)ccc2n1C | 233 |
| CN(C)C=CC(=O)C(=O)c1ccccc1 | 88 |
| Cc1ccc(-n2nc(C)c(CC(=O)O)c2C)cc1 | 119 to 121 |
| CCCc1c(OCCCCCC(=O)NCCCCc2ccccn2)ccc(C(C)=O)c1O | 63 to 66 |
| N#CCSc1nc(NCc2ccc3c(c2)OCO3)cc(-c2ccccc2)n1 | 140 to 142 |
| CCc1ccc(-c2cn(C)cc(-c3ccccc3)c2=O)cc1 | 143 to 145 |
| C=CC(=O)Oc1ccc(N2C(=O)C(=C(C)C)/C(=C(\c3cc(C)oc3C)C(C)C)C2=O)cc1 | 50 to 52 |
| CCC(O)(CC(N)=O)c1ccc(Br)cc1 (stereo unspecified) | 118 to 119 |
| COc1ccc(N2C(=O)Cc3ccccc32)cc1F | 133 to 136 |
| CCONC(=O)c1ccc(-c2cccc(CN(C)Cc3ccccc3)c2)cn1 | 85 to 90 |
| CN1CC(C(=O)N(C)CCCc2ccc(Cl)c(Cl)c2)=C(O)C1=O | 138 to 140 |
| O=c1c2cc(F)c(N3CCCC3)nc2n(Cc2ccccc2)c(=O)n1O | 219 to 220 |
| CC(=NOCCOc1ccc(CC2SC(=O)NC2=O)cc1)c1ccc(NS(=O)(=O)c2ccccc2)cc1 (stereo unspecified) | 213 to 215 |
| CNC(=O)Nc1snc(S(C)=O)c1C(N)=O (stereo unspecified) | > 355 |
| CC(c1ccc2ccccc2c1)N(O)C(=O)NO (stereo unspecified) | 148 to 150 |
| CCC(CC)Nc1nnc(-c2ccccc2)c2ccccc12 | 210 |
| O=C1NC(=O)c2cc(NC3CCCCC3)c(NC3CCCCC3)cc21 | 170 to 175 |
